Among the test systems are A498; ACHN; BT-549; CAKI-1; DLD-1; HCC 2998; HCT-15; Hs-578T; K562; M14; MDA-MB-231; NCI-H522; OVCAR-8; PC-3; SF-295; SNB-19; SR; SW-620; UACC-62; SNB-75.
Test in all cases: NCI tumour cell line growth inhibition, 48 h

The structures appear in SMILES notation.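 Dose response: 5 concentrations. Exposure: 48 h. Format: 96-well plates. Endpoint: linear interpolation; highest concentration if not reached. GI50 is the concentration that inhibits growth by half.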 Active and inactive are the calls of the source. Rule as the data show it: active = GI50 up to about 1.1 µM and inactive = higher.

For the molecule `Cc1cc(C(=C2C=CC(=N)C=C2)c2ccc(N)cc2)ccc1N` [FUCHSIN, BASIC], the GI50 with A498 was 32.5 µM (inactive); in the experiment on ACHN it was 8.09 µM (inactive); in the experiment on BT-549, 820 nM (active); in the experiment with CAKI-1, 11.9 µM (inactive); in the experiment on DLD-1, 3.45 µM (inactive); in the experiment with HCC 2998, 3.23 µM (inactive). Moreover, the GI50 in the experiment with HCT-15 is 12 µM; with Hs-578T it was 494 nM (active); with K562, 2.79 µM (inactive); with M14, 4.23 µM (inactive); in the experiment on MDA-MB-231, 6300 nM (inactive); with NCI-H522, 2.84 µM (inactive). For the same molecule, the GI50 in the experiment with OVCAR-8 was 1.35 µM (inactive); with PC-3, 3480 nM (inactive); with SF-295, 0.564 µM (active); with SNB-19, 0.615 µM (active); in the experiment on SR it was 13.3 µM (inactive); in the experiment with SW-620, 3.67 µM (inactive). In addition, the GI50 with UACC-62 was 4.45 µM (inactive).

For `Cc1nc2sccn2c1C(=O)NNC(N)=S`, the GI50 with ACHN is > 100 µM (inactive); in the experiment on CAKI-1, > 100 µM (inactive); in the experiment with DLD-1, > 100 µM (inactive); in the experiment with HCC 2998, > 100 µM (inactive); with HCT-15, above 100 µM; in the experiment with K562, > 100 µM (inactive). The GI50 in the experiment with NCI-H522, in the experiment on OVCAR-8, in the experiment on SF-295, in the experiment with SNB-19, in the experiment on SR and with SW-620 was > 100 µM (inactive) in each case. The GI50 in the experiment with UACC-62 is > 100 µM (inactive).

As for `CCOc1ncnc2ccc(Cl)c(I)c12`, the GI50 with A498 was 31 µM (inactive); with ACHN it was 33.6 µM (inactive); in the experiment on CAKI-1, 22.6 µM (inactive); in the experiment on DLD-1, 99.1 µM (inactive); in the experiment on HCC 2998 it was > 100 µM (inactive); with HCT-15, above 100 µM. Besides, the GI50 with K562 is 88.7 µM (inactive); in the experiment on M14, 75.2 µM (inactive); with NCI-H522, > 10 µM (inactive); in the experiment with OVCAR-8, > 100 µM (inactive); with SF-295 it was > 100 µM (inactive); in the experiment with SNB-19 it was 89.1 µM (inactive). Besides, the figures for the GI50 with SR, in the experiment on SW-620 and in the experiment on UACC-62 were 47.2 µM (inactive), > 100 µM (inactive) and 46.5 µM (inactive), respectively.

`O=C(NC(=O)c1ccccc1[N+](=O)[O-])Nc1ccc(Oc2ncc(Cl)cn2)c(C(F)(F)F)c1`: the GI50 is < 0.01 µM (active) in the experiment with A498; 0.0789 µM (active) in the experiment on ACHN; < 0.01 µM (active) with CAKI-1; < 0.0132 µM (active) in the experiment with DLD-1; 0.0209 µM (active) in the experiment on HCC 2998; below 0.0126 µM in the experiment with HCT-15. In addition, the GI50 was < 10 nM (active) with Hs-578T; < 0.0336 µM (active) in the experiment with K562; < 0.0115 µM (active) in the experiment with M14; 37.1 nM (active) with MDA-MB-231; < 0.01 µM (active) in the experiment with NCI-H522; 0.0236 µM (active) with OVCAR-8. Moreover, the GI50 was < 10 nM (active) with PC-3; < 0.01 µM (active) in the experiment on SF-295; 0.0218 µM (active) in the experiment with SNB-19; < 0.01 µM (active) with SNB-75; 0.116 µM (active) in the experiment with SR; < 0.01 µM (active) in the experiment on SW-620. Moreover, in the experiment on UACC-62, the GI50 was < 0.01 µM (active).

Regarding `Cc1nc2ccccc2c(=O)n1NC(=S)Nc1ccccc1`, the GI50 in the experiment with A498 was > 100 µM (inactive); in the experiment on ACHN, > 100 µM (inactive); with CAKI-1 it was > 100 µM (inactive); with DLD-1 it was > 100 µM (inactive); in the experiment on HCT-15 it was above 100 µM; in the experiment with K562 it was > 100 µM (inactive). For the same molecule, the GI50 in the experiment with M14 is > 100 µM (inactive); in the experiment with NCI-H522, > 100 µM (inactive); with OVCAR-8, > 100 µM (inactive); with SF-295, > 100 µM (inactive); with SNB-75, 4.99 µM (inactive); with SR, > 100 µM (inactive). For the same molecule, the GI50 with SW-620 and in the experiment on UACC-62 was > 100 µM (inactive) each time.

`COc1ccc2nc(NC(=O)C(=O)CC(=O)c3ccc(Cl)cc3)sc2c1`: the GI50 was > 100 µM (inactive) in the experiment on A498; > 100 µM (inactive) in the experiment on ACHN; 58.5 µM (inactive) in the experiment on CAKI-1; > 100 µM (inactive) in the experiment with DLD-1; 56.9 µM (inactive) in the experiment on HCC 2998; above 100 µM in the experiment with HCT-15. For the same molecule, the GI50 is > 100 µM (inactive) in the experiment on M14; 92.3 µM (inactive) with NCI-H522; > 100 µM (inactive) in the experiment on OVCAR-8; 56.9 µM (inactive) with SF-295; 95.5 µM (inactive) in the experiment with SNB-19; 29.4 µM (inactive) in the experiment with SNB-75. Also, the results for the GI50 with SR, in the experiment with SW-620 and in the experiment on UACC-62 were > 100 µM (inactive), > 100 µM (inactive) and 68.7 µM (inactive), respectively.

Consider `CSCC1CC(c2ccc(Cl)cc2)=NO1` (stereo not drawn), for which the GI50 was > 100 µM (inactive) in the experiment with A498; > 100 µM (inactive) with ACHN; > 100 µM (inactive) with CAKI-1; > 100 µM (inactive) in the experiment on DLD-1; > 100 µM (inactive) with HCC 2998; above 100 µM in the experiment with HCT-15. Besides, the GI50 in the experiment on K562, with M14, in the experiment with NCI-H522, in the experiment with OVCAR-8, in the experiment with SF-295 and with SNB-75 was > 100 µM (inactive) each time. Also, the GI50 in the experiment with SR, in the experiment on SW-620 and with UACC-62 was > 100 µM (inactive) each time.

In the case of `COC(=O)C(=O)OC1(C(C)=O)CC2(c3ccccc3)OC1(c1ccccc1)c1ccccc12` (stereo not drawn), the GI50 in the experiment on A498 is 18.6 µM (inactive); in the experiment on CAKI-1, 17.9 µM (inactive); in the experiment with DLD-1 it was 18.6 µM (inactive); in the experiment with HCC 2998, 16.7 µM (inactive); in the experiment with HCT-15 it was 16.9 µM; in the experiment with K562, 27.7 µM (inactive). The GI50 in the experiment on M14 was 17.9 µM (inactive); in the experiment on NCI-H522, 17.7 µM (inactive); in the experiment with OVCAR-8, 15.9 µM (inactive); in the experiment on SF-295, 14.5 µM (inactive); with SNB-19 it was 19.9 µM (inactive); in the experiment on SNB-75, 32.7 µM (inactive). Besides, the GI50 in the experiment with SR is 28.1 µM (inactive); in the experiment on SW-620 it was 16.4 µM (inactive); with UACC-62, 14.9 µM (inactive).

Consider `O=c1oc2c3ccc4ccccc4c3n(CCN3CCOCC3)c2c2ccccc12`, for which the GI50 in the experiment on ACHN was 5.6 µM (inactive); in the experiment with CAKI-1, 6.78 µM (inactive); with DLD-1, > 100 µM (inactive); with HCC 2998, > 100 µM (inactive); with K562, 3.89 µM (inactive); with M14 it was 58.5 µM (inactive). The GI50 in the experiment with NCI-H522 is 2.48 µM (inactive); in the experiment with OVCAR-8, > 100 µM (inactive); in the experiment with SF-295, 6.38 µM (inactive); in the experiment on SNB-19, > 100 µM (inactive); in the experiment on SNB-75, 6.08 µM (inactive); with SR it was 1.15 µM (inactive). The GI50 in the experiment with SW-620 was 5.73 µM (inactive); in the experiment on UACC-62 it was 3.68 µM (inactive).

Consider `O=C1c2ccccc2N2Oc3ccccc3C12c1ccccc1` (stereo not drawn), for which the GI50 was > 100 µM (inactive) with A498; > 100 µM (inactive) in the experiment with ACHN; > 10 µM (inactive) in the experiment on DLD-1; > 100 µM (inactive) with HCC 2998; above 100 µM with HCT-15; > 100 µM (inactive) with K562. The GI50 with M14, with NCI-H522, in the experiment with OVCAR-8, in the experiment on SF-295, in the experiment on SNB-19 and in the experiment on SNB-75 was > 100 µM (inactive) each time. Further, the GI50 in the experiment with SR, with SW-620 and in the experiment with UACC-62 was > 100 µM (inactive) throughout.

With `CCOC(=N)CC(=O)c1ccccc1`, the GI50 in the experiment on A498, in the experiment on ACHN, in the experiment on CAKI-1, in the experiment on DLD-1, in the experiment with HCC 2998 and in the experiment with K562 was > 100 µM (inactive) each time. The GI50 with M14, in the experiment with NCI-H522, in the experiment with OVCAR-8, in the experiment on SF-295, in the experiment with SNB-19 and in the experiment with SNB-75 was > 100 µM (inactive) each time. In addition, the GI50 in the experiment on SR, in the experiment with SW-620 and with UACC-62 was > 100 µM (inactive) throughout.

Take `CCC(C)C(=O)O[C@H]1C(=O)O[C@@H]2C[C@H]3C(C)=CC(=O)[C@@H](O)[C@]3(C)[C@H]3[C@@H](O)[C@H](O)[C@@]4(C)OC[C@]32[C@@H]14` (stereo partly drawn): the GI50 in the experiment on A498 was < 0.01 µM (active); with ACHN, < 0.0156 µM (active); with CAKI-1, < 0.0455 µM (active); with DLD-1 it was 0.0293 µM (active); in the experiment with HCC 2998, < 0.0147 µM (active); with HCT-15 it was below 0.0204 µM. In addition, the GI50 was < 10 nM (active) with Hs-578T; 0.0109 µM (active) in the experiment on K562; < 0.0144 µM (active) with M14; < 10 nM (active) in the experiment on MDA-MB-231; 0.0147 µM (active) with NCI-H522; < 0.0155 µM (active) with OVCAR-8. For the same molecule, the GI50 was < 10 nM (active) in the experiment on PC-3; < 0.0205 µM (active) with SF-295; < 0.0143 µM (active) with SNB-19; < 0.0167 µM (active) in the experiment with SNB-75; 0.01 µM (active) in the experiment with SR; < 0.0162 µM (active) with SW-620. The GI50 with UACC-62 was < 0.019 µM (active).

The values are drawn from ChEMBL document CHEMBL1201862, “PubChem BioAssay data set” (2004).
